Test results published in patent publication US4622338A, “Substituted glutaric acid lactones in the treatment of hyperlipidemia” (G. D. Searle & Co., priority 1985, dated 1986).

Target: T1, rat liver microsomal HMGCoA reductase (Rattus norvegicus, UniProt P51639)
T1 construct: rat liver microsomal HMGCoA reductase; from tissue; host or cells: rat liver microsomes
T1 sequence (P51639 1-887): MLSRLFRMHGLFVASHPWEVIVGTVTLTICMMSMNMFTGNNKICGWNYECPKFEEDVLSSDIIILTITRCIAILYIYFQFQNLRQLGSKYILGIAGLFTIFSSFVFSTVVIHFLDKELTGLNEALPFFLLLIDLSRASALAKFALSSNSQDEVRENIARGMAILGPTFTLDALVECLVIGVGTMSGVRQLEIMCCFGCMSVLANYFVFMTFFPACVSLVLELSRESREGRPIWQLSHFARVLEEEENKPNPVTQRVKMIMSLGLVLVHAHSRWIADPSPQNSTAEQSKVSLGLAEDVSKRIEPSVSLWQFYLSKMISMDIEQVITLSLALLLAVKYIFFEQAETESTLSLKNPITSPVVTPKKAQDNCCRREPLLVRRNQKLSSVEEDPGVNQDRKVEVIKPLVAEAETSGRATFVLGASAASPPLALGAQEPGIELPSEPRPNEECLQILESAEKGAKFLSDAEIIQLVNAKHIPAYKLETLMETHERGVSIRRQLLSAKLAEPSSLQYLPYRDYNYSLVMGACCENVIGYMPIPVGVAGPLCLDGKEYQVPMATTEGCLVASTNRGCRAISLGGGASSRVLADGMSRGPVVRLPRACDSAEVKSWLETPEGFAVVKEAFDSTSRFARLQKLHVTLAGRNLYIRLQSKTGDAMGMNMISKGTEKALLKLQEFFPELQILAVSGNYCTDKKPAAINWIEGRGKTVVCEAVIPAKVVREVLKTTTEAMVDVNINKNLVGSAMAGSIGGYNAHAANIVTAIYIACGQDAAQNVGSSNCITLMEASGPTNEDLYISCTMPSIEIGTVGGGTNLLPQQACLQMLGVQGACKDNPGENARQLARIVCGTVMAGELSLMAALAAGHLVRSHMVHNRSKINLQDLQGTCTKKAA
Assay: in vitro inhibition of rat liver microsomal HMGCoA reductase
Format: biochemical
Details: read-out: % inhibition (HMG CoA reductase); for inhibition at 50 µM: at 5.0×10^-5 M
Experimental: The in vitro inhibitory activity of the present compounds is evaluated using rat liver microsomal HMGCoA reductase as described by Edwards, et al. J. Biol. Chem. 249, 2891 (1974). The IC50 is defined as the concentration required to inhibit the enzyme by 50% of control.
HMG derivaties are added to a preincubation mixture consisting of 0.1 M K PO4, PH7.2, 0.02 M glucose-6-PO4, 2.5 mM NADP, 0.7 units of glucose-6-PO4 dehydrogenase, 5 mM dithiothreitol, 50 mM mevalonic acid and approximately 50 μg of microsomal protein. Triplicate samples are preincubated for 15 min. at 37° C. in a volume of 1 ml. Incubation is started with 40 μM 14C-HMGCoA (0.1 ml) run for 15 min. at 37° C. and stopped with 5 N HCl (0.1 ml). Assay tubes are allowed to set for at least 30 min., then approximately 50,000 dpm of ^3 H-mevalonic acid are added to provide for extraction efficiency. Mevalonic acid is extracted with ether and the % ^14 C-HMGCoA incorporation determined for concurrent control and test reaction systems. Testing is done (first) with a range finding assay followed by a 4 or 5 point assay to find the IC50 value.

inhibition at 50 µM | inhibition at 75 µM (at 7.5×10^-5 M) | Structure (SMILES)
52% |  | CCCCCCCCCCCCCC1CC(O)(CC(=O)O)CC(=O)O1 (stereo not drawn) [Example 1, 3-Carboxymethyl-3,5-Dihydroxyoctadecanoic Acid-1,5-Lactone]
57% |  | CC(CCCCCCCCC1CC(O)(CC(=O)O)CC(=O)O1)c1ccccc1 (stereo not drawn) [Example 2, 3-Carboxymethyl-3,5-dihydroxy-14-phenylpentadecanoic acid 1,5-Lactone]
 | 49% | CC(CCCCCCCCC1CC(O)(CC(=O)O)CC(=O)O1)C1CCCCC1 (stereo not drawn) [Example 3, 3-Carboxymethyl-14-cyclohexyl-3,5-dihydroxypentadecanoic acid 1,5-lactone]
